Reference: US20250020668A1, “CANCER LESION TISSUE EVALUATION FOR OPTIMIZING EFFECT OF BORON NEUTRON CAPTURE THERAPY” (3-D Matrix, Ltd., priority 2018, published 2025)

Tested on: PABPc1
Assay: Immunoprecipitation with anti-BSH antibody from U251 cell crushing solution
Type: binding
Details: 50 μM, FIG. 2 and FIG. 3 combined
Experimental: To a cell crushing solution of a malignant brain tumor cell line U251, simple BSH (referred to BSH) (50 μM) or BSH-11R (50 μM) was added, and proteins which bind to BSH and BSH-11R were explored by immunoprecipitation with an anti-BSH antibody (10 μg).
To examine whether the binding of BSH-11R to the translation-related factors is a direct or indirect binding, a subline of malignant brain tumor cell line U251 that underwent knockdown of the translation-related factors with shRNA lentivirus was prepared. To the cell crushing solutions, BSH-11R (50 μM) was added, and translation-related factors that bind to BSH-11R were analyzed with an anti-BSH antibody (10 μg).

Substance: mercaptoundecahydrodecaborate [BSH]
- binding to PABPc1: binds to BSH in an RNA-dependent manner
